Legend:
[1] = test system: neuromuscular blockade induced by atracurium; conditions: H. D. de Boer et al., British Journal of Anaesthesia 2006; cited from earlier work
[2] = such as mivacurium, atracurium, and cisatracurium; background; cited from earlier work
[3] = test system: Inflammation-Related Factors; assay type: in vivo, ICR mice; conditions: Adamgammadex sodium 1 g/kg, Sugammadex sodium 1 mg/kg, Neostigmine 0.3 mg/kg
Experimental: An antibody array is a type of protein chip characterized by miniaturization, integration, and high throughput. It can be used to detect the expression abundance of proteins related to a specific physiological or pathological process. The principle involves arranging capture antibodies on a membrane or glass slide, incubating with the sample, adding biotin-labeled antibodies against the target proteins, and finally using HRP-streptavidin or fluorescein-streptavidin to detect the chip signal. Signals are detected using chemiluminescence or HiLyte™ Fluor 555-streptavidin.
In this experiment, ICR mice were randomly divided into a blank group, Adamgammadex sodium (1 g/kg) group, Sugammadex sodium (1 mg/kg) group, and Neostigmine (0.3 mg/kg) group, with 2 mice per group. Mice in each group given the corresponding dosage of compound via the tail vein once daily for 5 consecutive days. On the last day after administration, plasma from the 2 animals per group was mixed and detected using the Ary028 immune chip kit. Specific detection steps were as follows: • (1) Sample volume determination: 200 µL serum sample per Array unit. (2) Blocking protein chip: Each membrane was blocked with 2 mL of corresponding Array Buffer, incubated on a shaker for 1 hour. (3) Sample processing: Samples were diluted with corresponding Array Buffer to a volume of 1.5 mL per membrane, the corresponding Array unit was added, and incubated overnight with the Array protein membrane at 4°C. (4) Membranes were washed three times with corresponding Wash buffer, then diluted detection antibody was added and incubated at room temperature for 1 h. (5) Membranes were washed three times with corresponding Wash buffer, streptavidin-HRP was added and incubated for 30min at room temperature with shaking. (6) Membranes were washed three times with corresponding Wash buffer, 1 mL of chemiluminescent reagent was added to each well, and developed on a chemiluminescence imager. (7) Fluorescence intensity was used to represent the relative concentration of the corresponding protein.

[4] = ICR mice, tail vein once daily for 5 days, pooled plasma of 2 mice, N.D. = below minimum detection limit

For `O=C([O-])CCSC[C@H]1O[C@@H]2O[C@H]3[C@H](O)[C@@H](O)[C@@H](O[C@H]4[C@H](O)[C@@H](O)[C@@H](O[C@H]5[C@H](O)[C@@H](O)[C@@H](O[C@H]6[C@H](O)[C@@H](O)[C@@H](O[C@H]7[C@H](O)[C@@H](O)[C@@H](O[C@H]8[C@H](O)[C@@H](O)[C@@H](O[C@H]9[C@H](O)C(O)[C@@H](O[C@H]1[C@H](O)[C@H]2O)O[C@@H]9CSCCC(=O)[O-])O[C@@H]8CSCCC(=O)[O-])O[C@@H]7CSCCC(=O)[O-])O[C@@H]6CSCCC(=O)[O-])O[C@@H]5CSCCC(=O)[O-])O[C@@H]4CSCCC(=O)[O-])O[C@@H]3CSCCC(=O)[O-].[Na+].[Na+].[Na+].[Na+].[Na+].[Na+].[Na+].[Na+]` (stereo partly drawn) [Compound 7, Sugammadex sodium], the “reversing the neuromuscular blockade induced by atracurium (in words)” value [1] is given as “ineffective”, the “binding to succinylcholine or benzylisoquinoline-type neuromuscular blocking agents (in words)” value [2] is given as “does not bind” and the “Fluorescence Intensity BAFF/BlyS/ TNFSF13B (B cell activation factor)” value [3, 4] is given as 13375.34. The “Fluorescence Intensity C-Reactive Protein/CRP (C-reactive protein)” value [3, 4] was 8550.52, the “Fluorescence Intensity CCL21/6Ckine (Lymphocyte chemokine CCL21)” value [3, 4] was 27027.2 and the “Fluorescence Intensity CCL22/MDC (Macrophage-derived chemokine)” value [3, 4] was 2578.89. For the same compound, the “Fluorescence Intensity CD160 (Leukocyte differentiation antigen160)” value [3, 4] was 187.67, the “Fluorescence Intensity CXCL9/MIG (IFN-γ-induced monocyte factor)” value [3, 4] was 3617.92 and the “Fluorescence Intensity Chemerin (Chemotactic factor)” value [3, 4] was 4629.24. The “Fluorescence Intensity IL-7 (Interleukin-7)” value [3, 4] was 1922.84, the “Fluorescence Intensity IL-11 (Interleukin-11)” value [3, 4] was 216.49 and the “Fluorescence Intensity IL-12p40 (Interleukin IL-12p40)” value [3, 4] was 1049.34. The “Fluorescence Intensity IL-28 (Interleukin-28)” value [3, 4] was 2440.68, the “Fluorescence Intensity IL-33 (Interleukin-33)” value [3, 4] was 592.77 and the “Fluorescence Intensity M-CSF (Macrophage colony-stimulating factor)” value [3, 4] was 5871.05. The “Fluorescence Intensity Myeloperoxidase (Mastoperoxidase)” value [3, 4] was 4645.21, the “Fluorescence Intensity Pentraxin 3 (Pertussis toxin 3)” value [3, 4] was 4555.53 and the “Fluorescence Intensity TIM-1/KIM-1/ HAVCR (Hepatitis A virus receptor-1 (inflammation/ immunity))” value [3, 4] was 1023.1. The “impact on inducing immune inflammation in mice (in words)” value ([3]; conclusion from Tables 3 and 4) was “second-lowest impact”, the “Fluorescence Intensity M-CSF (Macrophage lysis-stimulating factor)” value ([3]; second M-CSF line of Table 4, ICR mice, tail vein once daily for 5 days, pooled plasma of 2 mice, N.D. = below minimum detection limit) was 5871.05 and the “Fluorescence Intensity Pentraxin 3/TSG-14 (Pertussis toxin 3)” value ([3]; second Pentraxin 3 line of Table 4, ICR mice, tail vein once daily for 5 days, pooled plasma of 2 mice, N.D. = below minimum detection limit) was 4555.53.
